{"source": "patent US9920030B2", "about": "(priority 2006, dated 2018)", "format_in_all_cases": "in vivo", "key": {"[1]": {"test_system": "Phytophthora infestans (the causal agent of tomato late blight)", "experiment": "whole plant or invertebrate"}, "[2]": {"test_system": "Plasmopara vilicola (the causal agent of grape downy mildew)", "experiment": "Test A: grape downy mildew, test suspension sprayed on grape seedlings after inoculation, visual disease rating", "text": "General protocol for preparing test suspensions for Test A-C: The test compounds were first dissolved in acetone in an amount equal to 3% of the final volume and then suspended at the desired concentration (in ppm) in acetone and purified water (50/50 mix by volume) containing 250 ppm of the surfactant Trem® 014 (polyhydric alcohol esters). The resulting test suspensions were then used in Tests A-C. Spraying a 200 ppm test suspension to the point of run-off on the test plants was equivalent to a rate of 500 g/ha.\nGrape seedlings were inoculated with a spore suspension of Plasmopara vilicola (the causal agent of grape downy mildew) and incubated in a saturated atmosphere at 20° C. for 24 h. After a short drying period, the test suspension was sprayed to the point of run-off on the grape seedlings, which were then moved to a growth chamber at 20° C. for 5 days, after which time the grape seedling were placed back into a saturated atmosphere at 20° C. for 24 h. Upon removal, visual disease ratings were made.\nResults for Tests A-C are given in Table A. In the table, a rating of 100 indicates 100% disease control and a rating of 0 indicates no disease control (relative to the controls). A dash (-) indicates no test results."}, "[3]": {"test_system": "Phytophthora infestans (the causal agent of tomato late blight)", "experiment": "whole plant or invertebrate", "remark": "listed apart in the source"}, "[4]": {"conditions": "Phytophthora infestans, 144 h, read-out: Percent Disease Control, Test B"}, "[5]": {"conditions": "Plasmopara, 144 h, ** tested at l0 ppm, read-out: Percent Disease Control, Test A"}, "[6]": {"conditions": "Phytophthora infestans, 96 h, read-out: Percent Disease Control, Test C"}, "[7]": {"conditions": "compounds without asterisk (application rate not given), 100 = 100% disease control, 0 = no control relative to the controls"}}, "note": "Read-outs that look alike come from different tables or passages of the source.", "data": [{"compound": "Cc1cc(C(F)(F)F)nn1CC(=O)N1CCC(c2nc(C3=NO[C@@](C#N)(c4ccccc4)C3)cs2)CC1", "note": "(racemic) [Compound 265, (5R)-4,5-dihydro-3-[2-[1-[2-[5-methyl-3-(trifluoromethyl)-1H-pyrazol-1-yl]acetyl]-4-piperidinyl]-4-thiazolyl]-5-phenyl-5-isoxazolecarbonitrile]", "values": [{"measurement": "pest or weed control at 10 µg/mL", "setting": "[1]; [4]", "value": 100, "unit": "%"}, {"measurement": "pest or weed control at 10 µg/mL", "setting": "[2]; [5]", "value": 100, "unit": "%"}, {"measurement": "pest or weed control at 10 µg/mL", "setting": "[3]; [6]", "value": 98, "unit": "%"}]}, {"compound": "Cc1cc(C(F)(F)F)nn1CC(=O)N1CCC(c2nc(C3=NOC(c4ccccc4)C3)cs2)CC1", "note": "(single isomer, unassigned) [Compound 4]", "values": [{"measurement": "Percent Disease Control, Test B", "setting": "[1]; ** tested at l0 ppm", "value": 100, "unit": "%"}, {"measurement": "Percent Disease Control, Test A", "setting": "[2]; ** tested at l0 ppm", "value": 100, "unit": "%"}, {"measurement": "Percent Disease Control, Test C", "setting": "[3]; ** tested at l0 ppm", "value": 99, "unit": "%"}]}, {"compound": "Cc1cc(C(F)(F)F)nn1CC(=O)N1CCC(c2nc(C3=NOC4(CCC(c5ccccc5)C4)C3)cs2)CC1", "note": "(single isomer, unassigned) [Compound 157]", "values": [{"measurement": "Percent Disease Control, Test B", "setting": "[1]; * tested at 40 ppm", "value": 100, "unit": "%"}, {"measurement": "Percent Disease Control, Test A", "setting": "[2]; * tested at 40 ppm", "value": 100, "unit": "%"}, {"measurement": "Percent Disease Control, Test C", "setting": "[3]; * tested at 40 ppm", "value": 94, "unit": "%"}]}, {"compound": "Cc1cc(C(F)(F)F)nn1CC(=O)N1CCC(c2nc(C3=NOC4(CCC(c5ccccc5)C4)C3)cs2)CC1", "note": "(single isomer, unassigned) [Compound 158]", "values": [{"measurement": "Percent Disease Control, Test B", "setting": "[1]; [7]", "value": 100, "unit": "%"}, {"measurement": "Percent Disease Control, Test A", "setting": "[2]; [7]", "value": 96, "unit": "%"}, {"measurement": "Percent Disease Control, Test C", "setting": "[3]; [7]", "value": 99, "unit": "%"}]}, {"compound": "Cc1cc(C(F)(F)F)nn1CC(=O)N1CCC(c2nc(C3=NOC4(COC(c5ccccc5)OC4)C3)cs2)CC1", "note": "(single isomer, unassigned) [Compound 175]", "values": [{"measurement": "Percent Disease Control, Test B", "setting": "[1]; [7]", "value": 100, "unit": "%"}, {"measurement": "Percent Disease Control, Test A", "setting": "[2]; [7]", "value": 68, "unit": "%"}, {"measurement": "Percent Disease Control, Test C", "setting": "[3]; [7]", "value": 33, "unit": "%"}]}, {"compound": "Cc1cc(C(F)(F)F)nn1CC(=O)N1CCC(c2nc(C3=NOC4(COC(c5ccccc5)OC4)C3)cs2)CC1", "note": "(single isomer, unassigned) [Compound 176]", "values": [{"measurement": "Percent Disease Control, Test B", "setting": "[1]; [7]", "value": 100, "unit": "%"}, {"measurement": "Percent Disease Control, Test A", "setting": "[2]; [7]", "value": 68, "unit": "%"}, {"measurement": "Percent Disease Control, Test C", "setting": "[3]; [7]", "value": 63, "unit": "%"}]}, {"compound": "Cc1cc(C(F)(F)F)nn1CC(=O)N1CCC(c2nc(C3=NOC4(CCC(C)(c5ccccc5)CC4)C3)cs2)CC1", "note": "(single isomer, unassigned) [Compound 186]", "values": [{"measurement": "Percent Disease Control, Test B", "setting": "[1]; * tested at 40 ppm", "value": 100, "unit": "%"}, {"measurement": "Percent Disease Control, Test A", "setting": "[2]; * tested at 40 ppm", "value": 95, "unit": "%"}, {"measurement": "Percent Disease Control, Test C", "setting": "[3]; * tested at 40 ppm", "value": 86, "unit": "%"}]}, {"compound": "Cc1cc(C(F)(F)F)nn1CC(=O)N1CCC(c2nc(C3=NOC4(CCC(C)(c5ccccc5)CC4)C3)cs2)CC1", "note": "(single isomer, unassigned) [Compound 187]", "values": [{"measurement": "Percent Disease Control, Test B", "setting": "[1]; * tested at 40 ppm", "value": 100, "unit": "%"}, {"measurement": "Percent Disease Control, Test A", "setting": "[2]; * tested at 40 ppm", "value": 99, "unit": "%"}, {"measurement": "Percent Disease Control, Test C", "setting": "[3]; * tested at 40 ppm", "value": 93, "unit": "%"}]}, {"compound": "Cc1cc(C(F)(F)F)nn1CC(=O)N1CCC(c2nc(C3=NOC4(CCCC(C#N)C4)C3)cs2)CC1", "note": "(single isomer, unassigned) [Compound 253]", "values": [{"measurement": "Percent Disease Control, Test B", "setting": "[1]; * tested at 40 ppm", "value": 100, "unit": "%"}, {"measurement": "Percent Disease Control, Test A", "setting": "[2]; * tested at 40 ppm", "value": 100, "unit": "%"}, {"measurement": "Percent Disease Control, Test C", "setting": "[3]; * tested at 40 ppm", "value": 95, "unit": "%"}]}, {"compound": "Cc1cc(C(F)(F)F)nn1CC(=O)N1CCC(c2nc(C3=NOC4(CCCC(C#N)C4)C3)cs2)CC1", "note": "(single isomer, unassigned) [Compound 254]", "values": [{"measurement": "Percent Disease Control, Test B", "setting": "[1]; * tested at 40 ppm", "value": 100, "unit": "%"}, {"measurement": "Percent Disease Control, Test A", "setting": "[2]; * tested at 40 ppm", "value": 100, "unit": "%"}, {"measurement": "Percent Disease Control, Test C", "setting": "[3]; * tested at 40 ppm", "value": 93, "unit": "%"}]}, {"compound": "Cc1cc(C(F)(F)F)nn1CC(=O)N1CCC(c2nc(C3=NOC4(CCC(C#N)CC4)C3)cs2)CC1", "note": "(single isomer, unassigned) [Compound 255]", "values": [{"measurement": "Percent Disease Control, Test B", "setting": "[1]; * tested at 40 ppm", "value": 100, "unit": "%"}, {"measurement": "Percent Disease Control, Test A", "setting": "[2]; * tested at 40 ppm", "value": 95, "unit": "%"}, {"measurement": "Percent Disease Control, Test C", "setting": "[3]; * tested at 40 ppm", "value": 93, "unit": "%"}]}, {"compound": "Cc1cc(C(F)(F)F)nn1CC(=O)N1CCC(c2nc(C3=NOC4(CCC(C#N)CC4)C3)cs2)CC1", "note": "(single isomer, unassigned) [Compound 256]", "values": [{"measurement": "Percent Disease Control, Test B", "setting": "[1]; * tested at 40 ppm", "value": 100, "unit": "%"}, {"measurement": "Percent Disease Control, Test A", "setting": "[2]; * tested at 40 ppm", "value": 100, "unit": "%"}, {"measurement": "Percent Disease Control, Test C", "setting": "[3]; * tested at 40 ppm", "value": 99, "unit": "%"}]}, {"compound": "Cc1cc(C(F)(F)F)nn1CC(=O)N1CCC(c2nc(C3=NO[C@@H](c4ccccc4)C3)cs2)CC1", "note": "[Compound 3, 1-[4-[4-[(5R)-4,5-dihydro-5-phenyl-3-isoxazolyl]-2-thiazolyl]-1-piperidinyl]-2-[5-methyl-3-(trifluoromethyl)-1H-pyrazol-1-yl]ethanone]", "values": [{"measurement": "pest or weed control at 10 µg/mL", "setting": "[1]; [4]", "value": 100, "unit": "%"}, {"measurement": "pest or weed control at 10 µg/mL", "setting": "[2]; [5]", "value": 100, "unit": "%"}, {"measurement": "pest or weed control at 10 µg/mL", "setting": "[3]; [6]", "value": 99, "unit": "%"}]}, {"compound": "Cc1cc(C(F)(F)F)nn1CC(=O)N1CCC(c2nc(C3CC(c4ccccc4)=NO3)cs2)CC1", "note": "(stereo not drawn) [Compound 6, 4-[4-(4,5-dihydro-3-phenyl-5-isoxazolyl)-2-thiazolyl]-1-[(5-methyl-3-(trifluoromethyl)-1H-pyrazol-1-yl)acetyl]piperidine]", "values": [{"measurement": "pest or weed control at 40 ppm", "setting": "[1]; [4]", "value": 100, "unit": "%"}, {"measurement": "pest or weed control at 40 ppm", "setting": "[2]; Plasmopara, 144 h, * tested at 40 ppm, read-out: Percent Disease Control, Test A", "value": 95, "unit": "%"}, {"measurement": "pest or weed control at 40 ppm", "setting": "[3]; [6]", "value": 99, "unit": "%"}]}]}
